Test results: US20230118577A1, “NEUROACTIVE STEROIDS AND PHARMACEUTICAL COMPOSITION CONTAINING THE SAME” (Brii Biosciences, Inc., priority 2020, published 2023)

How the values were obtained:
GABAA α1β2γ2 = molecular target: T1, GABAA α1β2γ2 (Homo sapiens, UniProt P14867+P47870); assay: Automated patch clamp electrophysiology (SyncroPatch), PAM mode, GABAA α1β2γ2 cell line; assay type: cell-based; details: PAM mode; for EC50: HEK293 cells expressing human GABAA α1β2γ2, GABA EC20 14 μM, read-out: GABAA α1β2γ2 PAM EC50; for Emax: maximum fold increase in current relative to Allopregnanolone, GABA EC20 14 μM, read-out: GABAA α1β2γ2 PAM % Emax (to Allo)
T1 construct: expressed in transfected cells; host or cells: HEK293 expressing the Tetracycline repressor protein
Excerpt: (§1) Cellular electrophysiology was used to measure the pharmacology properties of the GABA receptor modulators. The GABAA channels are expressed in stable cell lines described herein. The parental cell line used to express the human GABAA channels is the human embryonic kidney (HEK293) cell line expressing the Tetracycline repressor protein to support inducible expression of the target proteins.
(§2) For the GABAA α4β3δ cell line, the α4 and β3 subunits are under control of tetracycline inducible expression system, while the δ subunit is constitutively expressed. For the GABAA α1β2γ2 cell line, the α1 and β2 subunits are under control of tetracycline inducible expression system, whist the γ2 subunit is constitutively expressed.
(§3) Assessment of the compounds against GABAA α1β2γ2 and GABAA α4β3δ was performed using the SyncroPatch automated platform in positive allosteric modulator (PAM) mode. Six concentrations of 20 nM, 62 nM, 185 nM, 555 nM, 1667 nM and 5000 nM were tested across the plate, with a single concentration of compound per well. A minimum of 3 cells were obtained per each concentration of a compound.
(§4) Automated patch clamp-recordings were performed using the SyncroPatch 384PE. The voltage protocol generation and data collection were performed with PatchController384 V1.6.6 and Data Controller V1.6.0. A steady state voltage pulse at −80 mV was applied during the assay.
(§5) The stacked addition protocol was used, in which γ-aminobutyric acid (GABA) was rapidly applied and then washed off from the cell. To test for positive allosteric modulator activity (PAM), first the agonist GABA EC20 (EC20: 10 μM for GABAA α4β3δ channel and 14 μM GABA for the GABAA α1β2γ2 channel) was applied twice (with wash steps in-between) as a control and to show activation reproducibility, followed by a 1-2 minutes pre-incubation of the tested compound and then re-application of GABA EC20 in the presence of a testing compound. Finally, following a further wash step, maximum GABA (10 mM) was applied.
(§6) An Allopregnanolone concentration response was tested as the control PAM on the compound plates. The fold increase was generated using the following equation, (Icomp/Icontrol)−1, where Icomp is the current amplitude in the presence of the compound and Icontrol is the current amplitude in the presence of GABA EC20 alone. This builds an EC50 concentration-response curve, where 0 represents no PAM activity and >0 represents PAM activity.
(§7) A maximum % Emax for each compound is generated using the following equation, (IMaxComp/IAveMaxAllo)*100, where IMaxcomp is the individual maximum fold increase in current for each compound and IAveMaxAllo is the average maximum fold increase generated in the presence of Allopregnanolone. The resultant % Emax values are then averaged. The compound and Allopregnanolone values were obtained from separate cells which were tested in the same compound run. Two GABAA subtypes were tested against each of the compounds as well as the positive control, Allopregnanolone.

GABAA α4β3δ = molecular target: T2, GABAA α4β3δ (Homo sapiens, UniProt P28472+P48169); assay: Automated patch clamp electrophysiology (SyncroPatch), PAM mode, GABAA α4β3δ cell line; assay type: cell-based; details: PAM mode, GABA EC20 10 μM; for EC50: HEK293 cells expressing human GABAA α4β3δ, read-out: GABAA α4β3δ PAM EC50; for Emax: maximum fold increase in current relative to Allopregnanolone, read-out: GABAA α4β3δ PAM % Emax (to Allo)
T2 construct: expressed in transfected cells; host or cells: HEK293 expressing the Tetracycline repressor protein
Excerpt: as §1, §2, §3, §4, §5, §6, §7

T2 sequence (P48169 36-554): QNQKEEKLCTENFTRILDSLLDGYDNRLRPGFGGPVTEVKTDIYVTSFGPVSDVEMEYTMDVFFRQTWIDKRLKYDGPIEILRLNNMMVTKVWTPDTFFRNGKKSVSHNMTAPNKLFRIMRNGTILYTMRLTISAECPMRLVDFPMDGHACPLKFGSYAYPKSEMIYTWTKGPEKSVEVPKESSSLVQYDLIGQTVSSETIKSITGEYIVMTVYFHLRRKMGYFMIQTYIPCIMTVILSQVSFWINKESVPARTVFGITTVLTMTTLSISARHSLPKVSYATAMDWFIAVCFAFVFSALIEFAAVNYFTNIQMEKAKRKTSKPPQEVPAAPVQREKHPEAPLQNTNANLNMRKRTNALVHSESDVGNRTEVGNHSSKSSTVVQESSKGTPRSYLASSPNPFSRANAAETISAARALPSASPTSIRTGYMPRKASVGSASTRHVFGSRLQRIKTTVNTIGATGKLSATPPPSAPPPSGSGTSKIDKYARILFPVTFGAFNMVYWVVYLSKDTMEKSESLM
T2 sequence (P28472 26-473): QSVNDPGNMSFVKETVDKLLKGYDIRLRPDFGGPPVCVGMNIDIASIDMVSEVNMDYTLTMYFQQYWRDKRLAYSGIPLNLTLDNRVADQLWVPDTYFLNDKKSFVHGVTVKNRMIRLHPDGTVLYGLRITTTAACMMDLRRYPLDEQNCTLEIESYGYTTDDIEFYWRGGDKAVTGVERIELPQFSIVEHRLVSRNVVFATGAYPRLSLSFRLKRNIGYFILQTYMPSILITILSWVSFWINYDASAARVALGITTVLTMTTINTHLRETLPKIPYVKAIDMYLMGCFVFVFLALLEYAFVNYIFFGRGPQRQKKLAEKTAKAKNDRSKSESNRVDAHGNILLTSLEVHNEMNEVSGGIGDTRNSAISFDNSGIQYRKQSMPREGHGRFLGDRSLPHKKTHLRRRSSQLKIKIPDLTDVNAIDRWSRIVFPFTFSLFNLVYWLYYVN
T2 sequence (O14764 17-452 partner limits assumed): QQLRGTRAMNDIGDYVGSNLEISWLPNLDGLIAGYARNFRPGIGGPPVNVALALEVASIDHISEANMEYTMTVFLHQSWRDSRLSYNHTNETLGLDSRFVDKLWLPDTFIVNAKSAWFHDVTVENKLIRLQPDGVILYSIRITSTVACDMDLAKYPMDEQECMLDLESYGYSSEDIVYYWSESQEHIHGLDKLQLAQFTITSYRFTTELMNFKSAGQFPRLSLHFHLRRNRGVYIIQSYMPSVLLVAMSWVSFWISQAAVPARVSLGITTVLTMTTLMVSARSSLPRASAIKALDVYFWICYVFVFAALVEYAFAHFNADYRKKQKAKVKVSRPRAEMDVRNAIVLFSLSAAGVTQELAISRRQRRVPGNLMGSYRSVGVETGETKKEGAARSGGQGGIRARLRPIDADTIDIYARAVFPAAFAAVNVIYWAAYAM
T1 sequence (P14867 28-456): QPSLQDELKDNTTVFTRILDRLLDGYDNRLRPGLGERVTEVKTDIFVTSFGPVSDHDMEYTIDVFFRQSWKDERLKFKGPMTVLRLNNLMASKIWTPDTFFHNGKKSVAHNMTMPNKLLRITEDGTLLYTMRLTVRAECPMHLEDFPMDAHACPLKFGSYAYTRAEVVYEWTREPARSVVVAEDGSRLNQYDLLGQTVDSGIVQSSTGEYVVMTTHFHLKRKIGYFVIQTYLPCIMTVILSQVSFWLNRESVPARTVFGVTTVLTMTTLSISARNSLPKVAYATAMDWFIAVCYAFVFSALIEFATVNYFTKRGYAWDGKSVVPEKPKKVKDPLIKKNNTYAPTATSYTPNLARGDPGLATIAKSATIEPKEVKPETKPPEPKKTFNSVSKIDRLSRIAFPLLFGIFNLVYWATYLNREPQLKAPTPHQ
T1 sequence (P47870 25-512 limits assumed): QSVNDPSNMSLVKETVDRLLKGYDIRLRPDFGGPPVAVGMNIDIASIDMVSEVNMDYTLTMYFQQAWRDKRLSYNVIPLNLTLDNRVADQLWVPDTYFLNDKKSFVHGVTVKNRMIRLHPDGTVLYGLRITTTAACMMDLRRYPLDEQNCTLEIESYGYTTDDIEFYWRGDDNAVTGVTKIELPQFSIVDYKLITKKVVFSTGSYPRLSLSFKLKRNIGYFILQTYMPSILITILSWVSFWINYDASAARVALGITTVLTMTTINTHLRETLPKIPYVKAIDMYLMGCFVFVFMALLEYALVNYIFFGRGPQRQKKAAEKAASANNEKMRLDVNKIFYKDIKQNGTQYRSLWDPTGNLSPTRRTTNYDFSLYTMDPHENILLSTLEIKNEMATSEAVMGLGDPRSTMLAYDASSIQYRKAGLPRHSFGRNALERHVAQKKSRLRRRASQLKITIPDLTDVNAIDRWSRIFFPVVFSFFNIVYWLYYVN
T1 sequence (P18507 40-475 partner): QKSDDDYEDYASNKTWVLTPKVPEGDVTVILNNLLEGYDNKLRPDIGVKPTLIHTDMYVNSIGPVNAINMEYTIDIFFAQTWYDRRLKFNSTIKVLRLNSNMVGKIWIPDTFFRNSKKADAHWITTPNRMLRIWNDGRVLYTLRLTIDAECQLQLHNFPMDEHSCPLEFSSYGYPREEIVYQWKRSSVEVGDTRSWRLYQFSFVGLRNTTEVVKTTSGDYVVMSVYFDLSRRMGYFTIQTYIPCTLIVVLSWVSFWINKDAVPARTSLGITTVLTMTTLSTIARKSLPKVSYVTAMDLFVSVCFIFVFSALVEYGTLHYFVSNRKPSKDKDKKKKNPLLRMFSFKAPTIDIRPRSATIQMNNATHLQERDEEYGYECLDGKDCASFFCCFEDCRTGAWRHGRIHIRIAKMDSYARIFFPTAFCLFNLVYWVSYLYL

Row | SMILES | EC50 (GABAA α1β2γ2) [nM] | Emax (GABAA α1β2γ2) [%] | EC50 (GABAA α4β3δ) [nM] | Emax (GABAA α4β3δ) [%]
1 | CC1([C@H]2CC[C@H]3[C@@H]4CC[C@H]5C[C@](C)(O)CC[C@]5(C)[C@H]4CC[C@]23C)COC1 [Example 1, (3R,5S,8R,9S,10S,13S,14S,17S)-3,10,13-trimethyl-17-(3-methyloxetan-3-yl)-1,2,4,5,6,7,8,9,11,12,14,15,16,17-tetradecahydrocyclopenta[a]phenanthren-3-ol] | 500 to 1000 | < 50 | > 1500 | < 50
2 | CC1([C@H]2CC[C@H]3[C@@H]4CC[C@@H]5C[C@](C)(O)CC[C@@H]5[C@H]4CC[C@]23C)COC1 [Example 2, (3R,5R,8R,9R,10S,13S,14S,17S)-3,13-dimethyl-17-(3-methyloxetan-3-yl)-2,4,5,6,7,8,9,10,11,12,14,15,16,17-tetradecahydro-1H-cyclopenta[a]phenanthren-3-ol] | 1000 to 1500 | > 90 | < 500 | > 90
3 | CC1([C@H]2CC[C@H]3[C@@H]4CC[C@H]5C[C@H](O)CC[C@]5(C)[C@H]4CC[C@]23C)CCO1 (stereo partly drawn) [Example 3, (3R,5S,8R,9S,10S,13S,14S,17S)-10,13-dimethyl-17-(2-methyloxetan-2-yl)-2,3,4,5,6,7,8,9,11,12,14,15,16,17-tetradecahydro-1H-cyclopenta[a]phenanthren-3-ol] | 1000 to 1500 | < 50 | 1000 to 1500 | < 50
4 | CC1([C@H]2CC[C@H]3[C@@H]4CC[C@H]5C[C@H](O)CC[C@]5(C)[C@H]4CC[C@]23C)COC1 [Example 5, (3R,5S,8R,9S,10S,13S,14S,17S)-10,13-dimethyl-17-(3-methyloxetan-3-yl)-2,3,4,5,6,7,8,9,11,12,14,15,16,17-tetradecahydro-1H-cyclopenta[a]phenanthren-3-ol] | 500 to 1000 | 50 to 90 | > 1500 | < 50
5 | CC1([C@H]2CC[C@H]3[C@@H]4CC[C@@H]5C[C@H](O)CC[C@]5(C)[C@H]4CC[C@]23C)COC1 [Example 6, (3R,5R,8R,9S,10S,13S,14S,17S)-10,13-dimethyl-17-(3-methyloxetan-3-yl)-2,3,4,5,6,7,8,9,11,12,14,15,16,17-tetradecahydro-1H-cyclopenta[a]phenanthren-3-ol] | < 500 | > 90 | 1000 to 1500 | > 90
6 | CC1([C@H]2CC[C@H]3[C@@H]4CC[C@@H]5C[C@](C)(O)CC[C@@H]5[C@H]4CC[C@]23C)CCOC1 (stereo partly drawn) [Example 7, (3R,5R,8R,9R,10S,13S,14S,17S)-3,13-dimethyl-17-(3-methyltetrahydrofuran-3-yl)-2,4,5,6,7,8,9,10,11,12,14,15,16,17-tetradecahydro-1H-cyclopenta[a]phenanthren-3-ol] | 500 to 1000 | > 90 | 500 to 1000 | > 90
7 | C[C@@]1(O)CC[C@H]2[C@H](CC[C@@H]3[C@@H]2CC[C@]2(C)[C@@H](C4(CC5CC5)COC4)CC[C@@H]32)C1 [Example 9, (3R,5R,8R,9R,10S,13S,14S,17S)-17-[3-(cyclopropylmethyl)oxetan-3-yl]-3,13-dimethyl-2,4,5,6,7,8,9,10,11,12,14,15,16,17-tetradecahydro-1H-cyclopenta[a]phenanthren-3-ol] | < 500 | 50 to 90 | > 1500 | > 90
8 | C[C@@]1(O)CC[C@H]2[C@H](CC[C@@H]3[C@@H]2CC[C@]2(C)[C@@H](C4(F)COC4)CC[C@@H]32)C1 [Example 10, (3R,5R,8R,9R,10S,13S,14S,17S)-17-(3-fluorooxetan-3-yl)-3,13-dimethyl-2,4,5,6,7,8,9,10,11,12,14,15,16,17-tetradecahydro-1H-cyclopenta[a]phenanthren-3-ol] | < 500 | > 90 | < 500 | > 90
9 | C[C@@]1(O)CC[C@H]2[C@H](CC[C@@H]3[C@@H]2CC[C@]2(C)[C@@H](C4(CC#N)COC4)CC[C@@H]32)C1 [Example 13, 2-[3-[(3R,5R,8R,9R,10S,13S,14S,17S)-3-hydroxy-3,13-dimethyl-2,4,5,6,7,8,9,10,11,12,14,15,16,17-tetradecahydro-1H-cyclopenta[a]phenanthren-17-yl]oxetan-3-yl]acetonitrile] | 1000 to 1500 | > 90 | 1000 to 1500 | < 50
10 | C[C@@]1(O)CC[C@H]2[C@H](CC[C@@H]3[C@@H]2CC[C@]2(C)[C@@H](C4(CF)COC4)CC[C@@H]32)C1 [Example 14, (3R,5R,8R,9R,10S,13S,14S,17S)-17-[3-(fluoromethyl)oxetan-3-yl]-3,13-dimethyl-2,4,5,6,7,8,9,10,11,12,14,15,16,17-tetradecahydro-1H-cyclopenta[a]phenanthren-3-ol] | 1000 to 1500 | > 90 | 500 to 1000 | 50 to 90
11 | C[C@@]1(O)CC[C@H]2[C@H](CC[C@@H]3[C@@H]2CC[C@]2(C)[C@@H](C4(Cn5cc(C#N)cn5)COC4)CC[C@@H]32)C1 [Example 15, 1-[[3-[(3R,5R,8R,9R,10S,13S,14S,17S)-3-hydroxy-3,13-dimethyl-2,4,5,6,7,8,9,10,11,12,14,15,16,17-tetradecahydro-1H-cyclopenta[a]phenanthren-17-yl]oxetan-3-yl]methyl]pyrazole-4-carbonitrile] | < 500 | > 90 | > 1500 | > 90
12 | C[C@@]1(O)CC[C@H]2[C@H](CC[C@@H]3[C@@H]2CC[C@]2(C)[C@@H](C4(C#N)COC4)CC[C@@H]32)C1 [Example 18, 3-((3R,5R,8R,9R,10S,13S,14S,17S)-3-hydroxy-3,13-dimethyl-2,4,5,6,7,8,9,10,11,12,14,15,16,17-tetradecahydro-1H-cyclopenta[a]phenanthren-17-yl)oxetane-3-carbonitrile] | < 500 | > 90 | < 500 | 50 to 90
13 | C[C@@]1(O)CC[C@H]2[C@H](CC[C@@H]3[C@@H]2CC[C@]2(C)[C@@H](C4(C(F)F)COC4)CC[C@@H]32)C1 [Example 19, (3R,5R,8R,9R,10S,13S,14S,17S)-17-[3-(difluoromethyl)oxetan-3-yl]-3,13-dimethyl-2,4,5,6,7,8,9,10,11,12,14,15,16,17-tetradecahydro-1H-cyclopenta[a]phenanthren-3-ol] | < 500 | > 90 | < 500 | > 90
14 | C[C@@]1(O)CC[C@H]2[C@H](CC[C@@H]3[C@@H]2CC[C@]2(C)[C@@H](C4(CC(F)(F)F)COC4)CC[C@@H]32)C1 [Example 20, (3R,5R,8R,9R,10S,13S,14S,17S)-3,13-dimethyl-17-(3-(2,2,2-trifluoroethyl)oxetan-3-yl)-2,4,5,6,7,8,9,10,11,12,14,15,16,17-tetradecahydro-1H-cyclopenta[a]phenanthren-3-ol] | < 500 | > 90 | < 500 | > 90
